Measured values as given in ChEMBL document CHEMBL4346729, “The discovery of novel 3-aryl-indazole derivatives as peripherally restricted pan-Trk inhibitors for the treatment of pain” (Bioorg Med Chem Lett, 2019).
Converted amounts (≈) assume the structure as drawn. The source made the active and inactive calls. The calls are words filed in the database; no cut-off is given here.

Experiments:
[1] = Intrinsic clearance in human liver microsomes; format: ADME, Microsome; conditions: read-out: CLH
[2] = Apparent permeability from apical to basolateral side in MDCK cells at 50 umol/L at pH 7.4 incubated for 30 mins by LC-MS/MS analysis; format: ADME, cell-based, Canis lupus familiaris; conditions: dog
[3] = Apparent permeability from apical to basolateral side in MDCK cells at 50 umol/L at pH 6.5 incubated for 30 mins by LC-MS/MS analysis; format: ADME, cell-based, Canis lupus familiaris; conditions: dog
[4] = Solubility of test compound; format: physicochemical
Rattus norvegicus = assay: Antinociceptive activity in CFA induced thermal hypersensitivity Sprague-Dawley rat model assessed as increase in paw withdrawal latency at 100 mg/kg, po after 1 hr; format: functional, organism-based

Structure (SMILES)	CLint scaled [1] [mL/min/kg]	Papp A→B at 0.5 h, 50 µM [2] [×10⁻⁶ cm/s]	Papp A→B at 0.5 h, 50 µM [3] [×10⁻⁶ cm/s]	solubility [4] [µM]	Activity (Rattus norvegicus)
CS(=O)(=O)c1ccc(F)cc1CNc1ccc2[nH]nc(-c3ccc(N4CCNCC4)nc3)c2c1	176 to 178	0.3 to 0.4	0.3	38.7 (≈ 18.6 µg/mL)	
CC(C)Cc1ccc(C(C)C(=O)O)cc1 (stereo unspecified)					Active
c1ccc(COc2ccc3[nH]nc(-c4ccc(N5CCNCC5)nc4)c3c2)cc1	694	9.6			
c1ccc(CCc2ccc3[nH]nc(-c4ccc(N5CCNCC5)nc4)c3c2)cc1	2730	3.1			
CS(=O)(=O)c1ccc(F)cc1CNc1ccc2[nH]nc(-c3cccnc3)c2c1	793	61.5		23 (≈ 9.12 µg/mL)	
CN(Cc1ccccc1)c1ccc2[nH]nc(-c3ccc(N4CCNCC4)nc3)c2c1	417	7.3			
CC(C)(Nc1ccc2[nH]nc(-c3ccc(N4CCNCC4)nc3)c2c1)c1ccccc1	1740	11			
c1ccc(CNc2ccc3[nH]nc(-c4ccc(N5CCNCC5)nc4)c3c2)cc1	12	13			
CS(=O)(=O)c1ccccc1CNc1ccc2[nH]nc(-c3ccc(N4CCNCC4)nc3)c2c1	74	12.5	0.4		

The next lines start with results.

CLint scaled [1] [mL/min/kg]	Papp A→B at 0.5 h, 50 µM [2] [×10⁻⁶ cm/s]	Papp A→B at 0.5 h, 50 µM [3] [×10⁻⁶ cm/s]	solubility [4] [µM]	Structure (SMILES)	Activity (Rattus norvegicus)
217				COc1cncc(-c2n[nH]c3ccc(NCc4ccccc4NS(C)(=O)=O)cc23)c1	
137	34		80.1 (≈ 32 µg/mL)	Cn1ccc(-c2n[nH]c3ccc(NCc4cc(F)ccc4S(C)(=O)=O)cc23)n1	
184	0.3			CS(=O)(=O)Nc1ccccc1CNc1ccc2[nH]nc(-c3ccc(NC4CCNCC4)nc3)c2c1	
323	0.3			CS(=O)(=O)Nc1ccccc1CNc1ccc2[nH]nc(-c3ccc(OC4CCNCC4)nc3)c2c1	
443	73.2		15.2 (≈ 6.03 µg/mL)	CS(=O)(=O)c1ccc(F)cc1CNc1ccc2[nH]nc(-c3ccccn3)c2c1	
69.5 to 70	1.2			CS(=O)(=O)Nc1ccccc1CNc1ccc2[nH]nc(-c3ccc(N4CCNCC4)nc3)c2c1	
359				COc1ccc(-c2n[nH]c3ccc(NCc4ccccc4NS(C)(=O)=O)cc23)cn1	
833				COc1cccc(-c2n[nH]c3ccc(NCc4ccccc4NS(C)(=O)=O)cc23)n1	
